Values after ≈ are worked out from the molar mass of the structure shown.
Key:
Trypsin = Trypsin (Homo sapiens, UniProt P07477+P07478+P35030); test: Inhibition of human trypsin by fluorescence based assay using 25 uM Boc-Gln-Ala-Arg-7-amido-4-methyl coumarinhydrobromide as substrate; format: protein assay
[1] = target: Urokinase-type plasminogen activator (Homo sapiens, UniProt P00749); test: Inhibition of human uPA by fluorescence based assay using L-PyroGlu-Gly-Arg-pNA.HCl as substrate
Coagulation factor X = Coagulation factor X (Bos taurus, UniProt P00743); test: Inhibition of bovine factor 10a by fluorescence based assay using CH3OCO-D-CHA-Gly-Arg-pNA.AcoH as substrate
Sequence of Coagulation factor X (P00743 41-180 limits assumed): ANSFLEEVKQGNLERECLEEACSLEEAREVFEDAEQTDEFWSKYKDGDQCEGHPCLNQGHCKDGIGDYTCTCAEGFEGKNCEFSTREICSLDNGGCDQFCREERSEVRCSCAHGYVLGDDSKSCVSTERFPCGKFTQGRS
Sequence of Coagulation factor X (P00743 234-492 limits assumed): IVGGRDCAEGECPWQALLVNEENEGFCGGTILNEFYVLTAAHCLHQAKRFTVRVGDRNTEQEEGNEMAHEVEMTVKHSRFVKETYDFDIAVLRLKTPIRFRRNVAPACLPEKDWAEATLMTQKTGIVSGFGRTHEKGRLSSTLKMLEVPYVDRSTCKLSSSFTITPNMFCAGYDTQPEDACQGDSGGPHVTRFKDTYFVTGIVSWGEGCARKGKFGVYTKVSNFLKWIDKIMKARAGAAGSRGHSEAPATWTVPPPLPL

[2] = target: T1, Suppressor of tumorigenicity 14 protein (Homo sapiens, UniProt Q9Y5Y6); test: Inhibition of human recombinant matriptase by fluorescence based assay using 20 uM Boc-Gln-Ala-Arg-7-amido-4-methyl coumarinhydrobromide as substrate
T1 sequence (Q9Y5Y6 whole entry): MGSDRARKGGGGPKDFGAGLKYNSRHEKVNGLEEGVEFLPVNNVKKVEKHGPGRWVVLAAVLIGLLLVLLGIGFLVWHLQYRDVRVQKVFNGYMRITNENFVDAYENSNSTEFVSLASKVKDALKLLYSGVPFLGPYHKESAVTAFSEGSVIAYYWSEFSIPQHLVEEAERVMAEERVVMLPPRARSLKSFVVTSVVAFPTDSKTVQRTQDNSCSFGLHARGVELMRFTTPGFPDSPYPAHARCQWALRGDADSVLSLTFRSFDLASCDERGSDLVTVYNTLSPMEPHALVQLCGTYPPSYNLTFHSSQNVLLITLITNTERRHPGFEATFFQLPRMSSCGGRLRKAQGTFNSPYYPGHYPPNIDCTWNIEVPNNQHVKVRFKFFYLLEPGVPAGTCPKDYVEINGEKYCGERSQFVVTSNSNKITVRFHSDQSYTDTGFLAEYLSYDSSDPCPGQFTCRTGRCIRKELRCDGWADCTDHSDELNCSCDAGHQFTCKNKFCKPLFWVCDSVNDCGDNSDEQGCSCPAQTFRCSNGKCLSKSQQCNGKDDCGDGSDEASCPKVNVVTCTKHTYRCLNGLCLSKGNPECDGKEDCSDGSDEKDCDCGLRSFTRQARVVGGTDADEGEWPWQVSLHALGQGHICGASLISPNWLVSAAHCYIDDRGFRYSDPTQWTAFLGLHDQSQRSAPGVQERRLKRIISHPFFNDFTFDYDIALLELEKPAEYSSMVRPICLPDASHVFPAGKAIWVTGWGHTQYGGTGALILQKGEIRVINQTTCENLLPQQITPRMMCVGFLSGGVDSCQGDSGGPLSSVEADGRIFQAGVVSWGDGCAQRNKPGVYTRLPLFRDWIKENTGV

[3] = target: Plasminogen (Homo sapiens) (UniProt P00747); test: Inhibition of human plasmin at 5 uM by fluorescence based assay using pyroGlu-Phe-Lys-pNA.HCl as substrate
Sequence of Plasminogen (Homo sapiens) (P00747 97-580 limits assumed): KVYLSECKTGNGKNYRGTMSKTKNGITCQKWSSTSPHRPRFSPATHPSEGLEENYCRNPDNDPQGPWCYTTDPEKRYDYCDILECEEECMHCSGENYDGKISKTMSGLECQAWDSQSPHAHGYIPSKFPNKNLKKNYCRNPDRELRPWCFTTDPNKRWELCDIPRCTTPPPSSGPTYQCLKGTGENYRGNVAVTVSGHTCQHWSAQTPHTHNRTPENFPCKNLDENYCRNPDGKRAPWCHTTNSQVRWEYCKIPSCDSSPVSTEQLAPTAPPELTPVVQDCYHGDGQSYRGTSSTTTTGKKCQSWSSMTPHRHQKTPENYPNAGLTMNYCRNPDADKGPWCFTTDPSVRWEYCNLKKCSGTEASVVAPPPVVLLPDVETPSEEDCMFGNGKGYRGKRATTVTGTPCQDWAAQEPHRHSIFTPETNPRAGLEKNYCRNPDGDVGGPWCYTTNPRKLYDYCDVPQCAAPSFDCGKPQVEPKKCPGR
Sequence of Plasminogen (Homo sapiens) (P00747 581-810 limits assumed): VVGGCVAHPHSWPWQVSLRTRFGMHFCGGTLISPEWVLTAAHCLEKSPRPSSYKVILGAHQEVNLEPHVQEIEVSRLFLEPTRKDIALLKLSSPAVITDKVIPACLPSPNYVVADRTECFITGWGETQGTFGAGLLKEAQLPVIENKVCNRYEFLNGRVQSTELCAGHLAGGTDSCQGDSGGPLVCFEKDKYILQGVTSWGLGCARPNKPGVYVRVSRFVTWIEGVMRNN

Prothrombin = Prothrombin (Homo sapiens, UniProt P00734); test: Inhibition of human thrombin by fluorescence based assay using 100 uM Boc-Gln-Ala-Arg-7-amido-4-methyl coumarinhydrobromide as substrate
Serine protease hepsin = Serine protease hepsin (Homo sapiens, UniProt P05981); test: Inhibition of human recombinant hepsin by fluorescence based assay using 65 uM BOC-Gln-Arg-Arg -AMC as substrate
Sequence of Serine protease hepsin (P05981 1-162 limits assumed): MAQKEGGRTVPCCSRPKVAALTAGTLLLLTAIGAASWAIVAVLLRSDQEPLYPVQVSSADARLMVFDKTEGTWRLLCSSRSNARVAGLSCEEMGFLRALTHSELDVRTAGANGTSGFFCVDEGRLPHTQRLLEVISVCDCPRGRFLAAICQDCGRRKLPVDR
Sequence of Serine protease hepsin (P05981 163-417 limits assumed): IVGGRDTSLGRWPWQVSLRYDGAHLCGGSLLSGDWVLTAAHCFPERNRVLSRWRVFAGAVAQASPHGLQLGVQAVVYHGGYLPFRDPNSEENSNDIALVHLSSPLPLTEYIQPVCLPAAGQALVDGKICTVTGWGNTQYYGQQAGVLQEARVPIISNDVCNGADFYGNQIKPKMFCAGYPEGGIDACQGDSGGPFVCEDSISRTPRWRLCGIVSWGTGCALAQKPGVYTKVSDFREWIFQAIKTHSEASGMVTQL

[4] = Antimigratory activity in human LNCaP-C42B4 cells by transwell-chamber assay; format: functional, cell-based
PC-3 [5] = test: Antinvasive activity in human PC3 cells by matrigel assay; format: functional, cell-based
PC-3 [6] = test: Antimigratory activity in human PC3 cells by transwell-chamber assay; format: functional, cell-based
[7] = Antinvasive activity in human LNCaP-C42B4 cells by matrigel assay; format: functional, cell-based
[8] = Aqueous solubility of compound at pH 7.4 by HPLC-UV/Vis analysis; format: physicochemical; details: aqueous medium
PC-3 [9] = test: Cytotoxicity against human PC3 cells at 10 uM after 72 hrs by calcein AM assay; format: cell-based; details: pc-3, 72 h
[10] = Stability in mouse liver microsomes assessed as compound remaining at 1 uM after 20 mins by LC-MS/MS analysis; format: ADME; details: read-out: Stability
[11] = Cytotoxicity against human LNCaP-C42B4 cells at 10 uM after 72 hrs by calcein AM assay; format: cell-based; details: lncap-c42b4, 72 h
[12] = Stability in mouse liver microsomes assessed as compound remaining at 1 uM after 40 mins by LC-MS/MS analysis; format: ADME; details: read-out: Stability

Row | SMILES | Ki (Trypsin) [nM] | Ki [1] [nM] | Ki (Coagulation factor X) [nM] | Ki [2] [nM] | inhibition [3] [%] | Ki (Prothrombin) [nM] | Ki (Serine protease hepsin) [nM] | EC50 [4] [nM] | EC50 (PC-3 [5]) [nM] | EC50 (PC-3 [6]) [nM] | EC50 [7] [nM] | solubility [8] [µM] | Activity (PC-3 [9]) [%] | remaining at 20 min, 1 µM [10] [%] | Activity [11] [%] | remaining at 40 min, 1 µM [12] [%]
1 | N=C(N)c1ccc2[nH]c(-c3cccc(C4(F)CCCCC4)n3)cc2c1 | 500 | 2700 | 700 | 800 | 11 | 3600 | 400 | – | – | – | – | – | – | – | – | –
2 | N=C(N)c1ccc2[nH]c(-c3ccccc3O)cc2c1 | 8000 | – | – | 60000 | – | – | 35000 | – | – | – | – | – | – | – | – | –
3 | N=C(N)c1ccc2[nH]ccc2c1 | – | – | – | – | – | – | 500000 | – | – | – | – | – | – | – | – | –
4 | N=C(N)c1ccc2[nH]c(-c3cccc(C4(O)CCCCC4)[n+]3[O-])cc2c1 | 800 | 7800 | 8200 | 1100 | 11 | 8600 | 100 | 600 | 2100 | 1800 | 500 | 200 (≈ 70.1 µg/mL) | 8 | 100 | 1 | 99
5 | CC(C)c1cc(Cl)cc(-c2cc3cc(C(=N)N)ccc3[nH]2)c1O | – | – | – | 4800 | 5 | – | 4800 | – | – | – | – | – | – | – | – | –
6 | N=C(N)c1ccc2[nH]c(-c3cccc(N4CCCCC4)n3)cc2c1 | – | 2300 | – | 1500 | – | – | 600 | 2600 | – | 5200 | – | 135 (≈ 43.1 µg/mL) | 10 | 82 | 12 | 60
7 | N=C(N)c1ccc2[nH]c(-c3cccc(C4(O)CCCCC4)n3)cc2c1 | 400 | 1300 | 1400 | 2100 | 24 | 2100 | 100 | 900 | 3500 | 2600 | 600 | 148 (≈ 49.5 µg/mL) | 10 | 86 | 8 | 64
8 | N=C(N)c1ccc2[nH]c(-c3cccc(N4CCCCC4)c3O)cc2c1 | – | – | – | 500 | – | – | 1400 | 4200 | – | 4900 | – | 126 (≈ 42.1 µg/mL) | 22 | 38 | 18 | 22
9 | CC(C)c1cccc(-c2cc3cc(C(=N)N)ccc3[nH]2)c1O | 800 | – | 1000 | 4400 | – | 1900 | 4900 | – | – | – | – | – | – | – | – | –
10 | N=C(N)c1ccc2[nH]c(-c3ccccc3O)nc2c1 | 23000 | – | 14000 | – | – | – | 40000 | – | – | – | – | – | – | – | – | –

Reference: ChEMBL document CHEMBL3632605, “Structure-guided discovery of 2-aryl/pyridin-2-yl-1H-indole derivatives as potent and selective hepsin inhibitors” (Bioorg Med Chem Lett, 2015)
